Consider 1 molecule from patent US20060094691A1, “Inclusion complexes of rosiglitazone” (priority 2002, published 2006).

This data set can be described thus: Intrinsic Dissolution Rate (IDR) at pH 6.8 of the cyclodextrin complexes (Sotax intrinsic dissolution assembly, USP<1087>). The class given is physicochemical. Conditions: 100 rpm. The procedure:
Data: Intrinsic Dissolution Rate (IDR) at pH 6.8 of the Cyclodextrin Complexes
The intrinsic dissolution rate was measured with a Sotax intrinsic dissolution assembly according to the procedure described in USP<1087>. The 8 mm diameter disc was formed from approximately 150 mg of cyclodextrin complex and compressed at a force of 5 tons for 30 seconds using a benchtop hydraulic press. The dissolution media was 1000 mL of water containing 31.6 mL of 1 M hydrochloric acid solution and 2.0 g of sodium chloride, which was adjusted to pH 6.8 with Tris/Acetate buffer, the dissolution volume was 900 mL at 37° C. and the rotating speed was 100 rpm. Detection was performed by flow through UV sampling every 2 minutes for 1 hour at 245 nm with a 1 cm path length.

Molecules are shown by their SMILES.

For the molecule `CN(CCOc1ccc(CC2SC(=O)NC2=O)cc1)c1ccccn1.O=C(O)/C=C\C(=O)O` (centres unmarked) [Maleate salt of Compound 1, 5-[4-[2-(N-methyl-N-(2-pyridyl)amino)ethoxy]benzyl]thiazolidine-2,4-dione, maleate salt], the “IDR relative to the Maleate salt of Compound 1” value (pH 6.8, 37° C., ratio to the maleate salt) was 1. This molecule gave an IDR (pH 6.8 dissolution media, 900 mL, 37° C., 8 mm disc, UV 245 nm) of 0.057 mg/min/cm^2.
